# Data from patent US8796415B2, “Inhibitors of guanine exchange factors and their use as anticancer drugs” (Centre National de la Recherche Scientifique, priority 2009, dated 2014).
# Entries after “also recorded” stand apart in the source; their conditions may differ. Ends that are not written are not given here.
# Columns and labels:
# Tgat = assay: FRET fluorescence nucleotide exchange kinetics assay, Tgat/RhoA; format: biochemical; settings: for Ki / inhibition of Tgat GEF activity in kinetics fluorescence assay: RhoA 1 μM, Tgat 0.5 μM; for Ki: GST-TRIP peptides up to 100 μM, read-out: apparent inhibition constant (Kiapp) towards Tgat; for inhibition of Tgat GEF activity in kinetics fluorescence assay: increasing GST-TRIP peptide concentrations up to 100 μM; for efficiency at inhibiting the exchange activity of Tgat relative to TRIPα: from Kiapp values
# Procedure: FIG. 4 represents the inhibition of Tgat GEF activity by TRIPT16M/L17S (SEQ ID NO: 41) and TRIPE32G (SEQ ID NO: 40) in vitro. FRET fluorescence exchange assays were performed using constant concentrations of RhoA (1 μM), equal amounts (0.5 μM) of Tgat (left panel) or Trio DH2 (right panel), and increasing concentrations of GST-TRIP peptides, up to 100 μM. Results were expressed as kobs values plotted as a function of the indicated TRIP inhibitor concentration.
# FIG. 5 represents a histogram showing the apparent inhibition constants (Ki app) of the TRIP peptides for Tgat and Trio DH2, as indicated. The values and error bars are calculated from at least three independent experiments. Error bars represent standard deviation
# Specific exchange rates of Tgat were measured with a fluorescence-based kinetics assay, using a 6His-RhoA construct (gift of Dr Derewenda, Charlottesville University, Virginia) purified as described (Oleksy et al., 2004). Exchange activities were followed by fluorescence resonance energy transfer (FRET) between the GTPase tryptophanes (λex=292 nm) and the methylanthranyloil group of mant-GTP (λem=440 nm) as described (Zeeh et al., 2006). All fluorescence measurements were performed with a CARY Eclipse fluorimeter (Varian). For each kobs determination, RhoA (1 μM) and Tgat (or Trio DH2) were preincubated 3 min at 25° C. in 700 μL reaction buffer (50 mM Tris pH 7.5, 50 mM NaCl, 2 mM MgCl2, 1 mM DTT). The exchange reaction was initiated by 10 μM mant-GTP and measured for 10 min until the plateau was reached. kobs were calculated by fitting the FRET fluorescence changes to a single exponential, using the Kaleidagraph software. Specific exchange activities were calculated by linear regression of kobs values determined for a range of GEF concentrations (0, 0.2, 0.3, 0.4, 0.5 and 1 μM).
# Radioactive [3H]-GDP dissociation assays were performed as described (Schmidt et al., 2002). Briefly, 0.15 μM GST-Trio DH2-PH2 was preincubated for 15 min with 3 μM of GST-TRIP inhibitors. The reaction was started by addition of 0.4 μM [3H]-GDP-loaded RhoA and 1 mM GTP, and the reaction mix was filtered after 0 min and 15 min incubation at 25° C. Inhibition efficiency is expressed as the ratio between [3H]-GDP-bound RhoA at 15 and 0 min. Apparent inhibition constants (Kiapp) of TRIP-like peptides were determined from kobs values obtained at increasing peptide concentrations using the above fluorescence nucleotide exchange assay. Kiapp was calculated from the hyperbolic fit of kobs values as a function of the inhibitor concentration as described (Zeeh et al., 2006). TRIP-like peptide specificity was assayed using mant-GTP fluorescence kinetics (λex=360 nm, λem=460 nm) in a FLX800 Microplate Fluorescence Reader (BioTek Instruments). 0.5 μM Tgat, p63RhoGEF, Lbc, and p115RhoGEF, or 0.1 μM Dbl and Trio DH1-PH1 were preincubated 5 min at 25° C. in the presence of 20 μM GST, GST-TRIPE32G or TRIPT16M/L17S and 1 μM mant-GTP. The exchange reaction was initiated by addition of 1 μM RhoA or RhoG and monitored for 10 min.
# p115RhoGEF = target: T1, p115RhoGEF (Homo sapiens, UniProt Q92888); assay: mant-GTP fluorescence kinetics specificity assay, RhoA/p115RhoGEF; format: biochemical; settings: peptide 20 μM, 0.5 μM GEF, 1 μM RhoA
# T1 construct: GST (N); made in house; host or cells: baculovirus system
# T1 sequence (Q92888 1-912): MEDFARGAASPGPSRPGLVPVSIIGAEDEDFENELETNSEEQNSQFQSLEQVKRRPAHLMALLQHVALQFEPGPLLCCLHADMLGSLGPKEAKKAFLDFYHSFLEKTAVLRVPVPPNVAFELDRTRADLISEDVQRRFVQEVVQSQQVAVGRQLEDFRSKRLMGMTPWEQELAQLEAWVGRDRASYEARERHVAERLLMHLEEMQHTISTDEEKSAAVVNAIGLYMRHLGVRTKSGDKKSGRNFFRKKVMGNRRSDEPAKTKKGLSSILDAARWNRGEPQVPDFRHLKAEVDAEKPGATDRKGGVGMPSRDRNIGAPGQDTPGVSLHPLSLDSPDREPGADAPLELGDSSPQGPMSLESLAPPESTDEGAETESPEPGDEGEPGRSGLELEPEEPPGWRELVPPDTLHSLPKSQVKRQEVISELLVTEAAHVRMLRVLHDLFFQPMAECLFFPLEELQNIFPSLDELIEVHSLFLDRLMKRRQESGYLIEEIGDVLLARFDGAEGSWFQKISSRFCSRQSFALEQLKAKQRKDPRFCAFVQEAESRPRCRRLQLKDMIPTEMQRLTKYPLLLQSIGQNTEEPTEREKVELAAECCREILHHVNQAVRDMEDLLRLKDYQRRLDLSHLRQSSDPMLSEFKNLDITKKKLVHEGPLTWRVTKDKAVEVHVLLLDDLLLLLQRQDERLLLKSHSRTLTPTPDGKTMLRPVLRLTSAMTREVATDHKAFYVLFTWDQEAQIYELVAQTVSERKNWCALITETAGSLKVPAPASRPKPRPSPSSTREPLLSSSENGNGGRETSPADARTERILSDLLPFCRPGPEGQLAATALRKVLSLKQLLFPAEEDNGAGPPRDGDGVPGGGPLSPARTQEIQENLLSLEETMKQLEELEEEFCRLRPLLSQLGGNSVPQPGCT
# Procedure: Figures represent the comparison of TRIPE32G and TRIPT16M/L17S inhibition efficiency on different GTPase/RhoGEF systems, using 1 μM GTPase and 0.5 μM GEF as follows:
# In each assay, the peptides were used at a concentration of 20 μM, corresponding to a 40 fold molar excess of inhibitor versus GEF. All fluorescence kinetics assays were performed using 1 μM mant-GTP. Results are expressed as Relative Fluorescence Units (RFU) versus time. The reaction performed in the absence of GEF reflects the spontaneous exchange activity of the GTPase.
# Radioactive [3H]-GDP dissociation assays were performed as described (Schmidt et al., 2002). […] Inhibition efficiency is expressed as the ratio between [3H]-GDP-bound RhoA at 15 and 0 min. Apparent inhibition constants (Kiapp) of TRIP-like peptides were determined from kobs values obtained at increasing peptide concentrations using the above fluorescence nucleotide exchange assay. Kiapp was calculated from the hyperbolic fit of kobs values as a function of the inhibitor concentration as described (Zeeh et al., 2006). TRIP-like peptide specificity was assayed using mant-GTP fluorescence kinetics (λex=360 nm, λem=460 nm) in a FLX800 Microplate Fluorescence Reader (BioTek Instruments). […] The exchange reaction was initiated by addition of 1 μM RhoA or RhoG and monitored for 10 min.
Ki (Tgat) [µM],effect on exchange activity of p115RhoGEF/RhoA (p115RhoGEF),Substance,inhibition of Tgat GEF activity in kinetics fluorescence assay (Tgat),inhibition of Tgat GEF activity in kinetics fluorescence assay (Tgat; listed as GST-TRIPα),efficiency relative to TRIPα (Tgat GEF activity) (Tgat) [fold],efficiency at inhibiting the exchange activity of Tgat relative to TRIPα (Tgat)
89 ± 33,,AREGADGAICGYNLATLVMLGPSERVFCPLCEPCSSDIYELM [TRIPα],rather ineffective,no effect,,
7.4 ± 5,no effect,GST-TRIPE32G (AREGADGAICGYNLATLVMLGPSERVFCPLCGPCSSDIYELM; cysteine pairing not given here; also: GST fusion),inhibited Tgat GEF activity in a dose-dependent manner; also recorded: low micromolar range,,15,about 15 times
5.1 ± 4,no effect,GST-TRIPT16M/L17S,inhibited Tgat GEF activity in a dose-dependent manner; also recorded: low micromolar range,,15,about 15 times
